In patent US20230151432A1, “KIF18A INHIBITORS FOR TREATMENT OF NEOPLASTIC DISEASES” (AMGEN INC., priority 2020, published 2023):

Legend:
[1] = tested on: KIF18A protein localization in HeLa cells; experiment: KIF18A and Centrin-3 immunostaining; format: cell-based, human; conditions: 0.05 μM, 6 hours
Experimental: To analyze the effect of KIF18A protein localization in cancer cells treated with a KIF18A inhibitor, KIF18A and Centrin-3 immunostaining in HeLa cells (FIG. 11). Cells were seeded into Lab-Tek 2-well chamber slides at a density of 100,000 cells per chamber in complete growth media and grown for 2 days to approximately 80% confluency. Cells were treated for 6 hours with DMSO, KIF18A inhibitor (Compound C9, 0.05 μM) in 2 mL of complete media. Cells were fixed in 4% formaldehyde for 15 minutes at room temperature followed by secondary fixation in ice-cold 90% methanol for 10 minutes at 4° C. After fixation, cells were washed in 2 mL of Wash Buffer (1% BSA, 0.2% Triton X-100, 1×PBS) and blocked 1 mL of Blocking Buffer (2 drops of horse serum (Vector Labs, Burlingame, Calif.) per 5 mL Wash Buffer). Cells are stained with anti-KIF18A rabbit antibody (1:3000, A301-080A 05-806, Bethyl) and anti-CETN3 mouse antibody (1:1000, H00001070-M01, Abnova) in 1 mL of Wash Buffer for 2 hours at room temperature. Cells were washed twice with 2 mL Wash Buffer. […] Wide-field images were captured using 40×objective on upright Nikon Eclipse NI-E epi-fluorescence microscope running Elements software. […]

[2] = tested on: human breast cancer cell lines; experiment: 4-day or 6-day cancer cell line growth assay screens (CellTiter-Glo, NCA); format: cell-based
Experimental: (§1) An analysis was carried out to identify cancer cell lines sensitivity profile to the KIF18A inhibitor Compound C9. In this analysis, a panel of different human breast and ovarian cancer cell lines (Table 2 of FIG. 4A and Table 3 of FIG. 4B), were used in either a 4-day or 6-day cancer cell line growth assay screen.
(§2) In the 4-day growth assay screen, cancer cell lines were treated in 96-well tissue culture plates at pre-optimized seeding density. Growth media conditions were determined by ChemPartners (Shanghai, China). After 24 hours, cells were treated with KIF18A inhibitor (Compound C9; final 10-point concentration range 2.0 μM to 0.0001 μM, 3-fold dilution) in a 4-day cell growth assay based on quantitation of ATP as an indicator of viable cells using CellTiter-GLO 2.0 readout (CTG, Promega). CTG assay was performed in duplicate for each cell line. Detection was performed using luminescence plate reader and expressed as relative luminescence units (RLU) based on POC (percentage of DMSO control). Raw data was provided to Amgen for curve-fitting analysis with 4-parameter equation (variable slope) using GraphPad Prism software (V7.0.4). […]
(§3) An expanded screen was performed using 6-day growth assay, cancer cell lines were treated in black 384-well tissue culture plates at 500-1500 cells per well. Growth media conditions were determined by Horizon Discovery (Cambridge, United Kingdom). After 24 hours, cells were treated with KIF18A inhibitor (Compound C9; final 11-point concentration range 2.0 μM to 0.0000339 μM, 3-fold dilution) in a 6-day cell growth assay based on quantitation of ATP as an indicator of viable cells using CellTiter-GLO 2.0 readout (Promega). Luminescence was detected using Envision plate reader (Perkin Elmer) and expressed as relative luminescence units (RLU) based on POC (percentage of control). […]
(§4) In Tables 2 and 3, “?” means that there were differences in sensitivity calls between the first screen and the second screen, and “ND” means not determined. […]

[3] = tested on: human ovarian cancer cell lines; experiment: as above; format: cell-based; conditions: nine TP53 wild-type ovarian cancer cell lines
Experimental: as §1, §2, §3, §4

[4] = tested on: p-Histone H3 in OVCAR-3 HGSOC tumor xenografts; experiment: Tumor pharmacodynamic p-Histone H3 MSD assay; format: in vivo, mouse; conditions: 3, 10, 30, 100 mg/kg; tumor collected 24 hours post-treatment
Experimental: Female athymic nude mice were injected with 5×10^6 OVCAR-3 cells in 0.1 mL subcutaneously in the right flank. After tumors were established (average tumor volume of 450 to 750 mm^3), animals were randomized into 5 treatment groups (vehicle alone, KIF18A inhibitor at 3, 10, 30, or 100 mg/kg) with 3 animals per group. Tumor and blood plasma were collected 24 hours post-treatment for pharmacokinetic analysis and tumor for pharmacodynamic analysis. Preparations of tumor protein lysates from snap frozen, pulverized, and lysed and processed using EpiQuik Total Histone Extraction Kit (OP-0006 Epigentek, Farmingdale, N.Y.) protocol. […] Lysates normalized for total protein per well were loaded onto Meso Scale Discovery (MSD) electrochemiluminescent immunoassay plates at 30 μg/well in lysis buffer a processed of pHH3 MSD analysis according to the manufacturer's protocol for the single-plex MSD assays using phospho-Histone H3 (serine-10) antibody (pHH3) and analyzed on a Sector Imager S16000 luminescence detection reader (MSD, Gaithersburg, Md.). Lysates were normalized for total protein and pHH3 fold induction represents the group average raw MSD value divided by the average raw MSD value of the vehicle treated group. […] The fold induction in pHH3 is noted for each KIF18A inhibitor treatment group relative to mean baseline pHH3 signal for vehicle group. […]

[5] = tested on: human OVCAR-8 HGSOC xenograft model (TP53MUT, BRCA1silenced); experiment: OVCAR-8 xenograft efficacy study, oral dosing (Example 4); format: in vivo, mouse
Experimental: Female athymic nude mice were injected with 5×10^6 OVCAR-8 cells in 0.1 mL subcutaneously in the right flank. […] Tumor volume and animal body weight measurements were determined twice per week (study start day 25, study end day 47). Tumor measurements, formulas, and regression analysis as described above for FIGS. 5A-5B. Data was plotted using GraphPad Prism software (V7.0.4), tumor volume and body weight data are expressed as means plus or minus standard error of the mean and plotted as a function of time. Statistical significance of observed differences between growth curves were calculated using SLACR package (v.1.0.3).

Row | SMILES | KIF18A protein localization in mitosis [1] | sensitivity to KIF18A inhibitor ([2]; luminal A or luminal B breast cancer cell lines) | sensitivity to KIF18A inhibitor ([2]; nine TP53 wild-type breast cancer cell lines incl. CAL-51, DU4475) | sensitivity to KIF18A inhibitor [3] | p-Histone H3 mitotic marker levels in tumor [4] | tumor growth inhibition (TGI) ([5]; 10 mg/kg PO QD, day 25 to day 47) [%] | tumor-free animals ([5]; 30 mg/kg PO QD) | tumor regression ([5]; 30 mg/kg PO QD, day 25 to day 47) [%] | tumor-free animals ([5]; 100 mg/kg PO QD) | tumor regression ([5]; 100 mg/kg PO QD, day 25 to day 47) [%]
1 | CC(C)(C)NS(=O)(=O)c1cccc(NC(=O)c2ccc(S(=O)(=O)NC(C)(C)C)cc2N2CCC3(CC2)CC3)c1 [Compound C9, 4-(N-(tert-butyl)sulfamoyl)-N-(3-(N-(tert-butyl)sulfamoyl)phenyl)-2-(6-azaspiro[2.5]octan-6-yl)benzamide] | KIF18A protein mis-localization in mitosis | None of the luminal A or luminal B breast cancer cell lines were sensitive | None of the nine TP53 wild-type breast cancer cell lines were sensitive | None of the nine TP53 wild-type ovarian cancer cell lines were sensitive |  |  |  |  |  | 
2 | Cc1cc(NC(=O)c2ccc(NS(=O)(=O)CCO)cc2N2CCC3(CC2)CC3)nc(N2CCC(F)(F)CC2)n1 [Compound C14, N-(2-(4,4-Difluoropiperidin-1-yl)-6-methylpyrimidin-4-yl)-4-((2-hydroxyethyl)sulfonamido)-2-(6-azaspiro[2.5]octan-6-yl)benzamide] |  |  |  |  | dose-dependent increase | 57 | 4 of 10 | 86 | 8 of 10 | 98
